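How tested: cells in 96-well plates exposed to compound for 48 hours at five concentrations. The concentration for 50% growth inhibition is given as GI50.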 Active and inactive are the calls of the source. Cut-off read from the data, not from the text of the source: active = GI50 up to about 1.1 µM and inactive = higher.
How the values were obtained:
Experiment in all cases: NCI tumour cell line growth inhibition, 48 h
[1] = tested on: MDA-MB-231
[2] = tested on: SK-MEL-5
[3] = tested on: MDA-MB-435
[4] = tested on: M14
[5] = tested on: RPMI-8226
[6] = tested on: NCI-H23
[7] = tested on: HT-29
[8] = tested on: SN12C
[9] = tested on: TK-10
[10] = tested on: HCC 2998
[11] = tested on: HOP-92
[12] = tested on: PC-3
[13] = tested on: HL-60
[14] = tested on: SNB-75
[15] = tested on: HCT-116
[16] = tested on: EKVX
[17] = tested on: T47D
[18] = tested on: A549
[19] = tested on: NCI-H226
[20] = tested on: Malme-3M
[21] = tested on: SR
[22] = tested on: NCI/ADR-RES
[23] = tested on: K562
[24] = tested on: SF-295
[25] = tested on: CAKI-1
[26] = tested on: MOLT-4
[27] = tested on: OVCAR-4
[28] = tested on: HCT-15
[29] = tested on: IGROV-1
[30] = tested on: OVCAR-3
[31] = tested on: SW-620
[32] = tested on: SK-OV-3
[33] = tested on: UACC-62
[34] = tested on: LOX IMVI
[35] = tested on: U-251
[36] = tested on: UACC-257
[37] = tested on: KM12
[38] = tested on: DU-145
[39] = tested on: A498
[40] = tested on: CCRF-CEM
[41] = tested on: COLO 205
[42] = tested on: OVCAR-8
[43] = tested on: NCI-H522
[44] = tested on: MDA-N
[45] = tested on: OVCAR-5
[46] = tested on: SK-MEL-2
[47] = tested on: UO-31
[48] = tested on: BT-549
[49] = tested on: 786-0
[50] = tested on: ACHN
[51] = tested on: HOP-62
[52] = tested on: SF-268
[53] = tested on: SF-539
[54] = tested on: MCF7
[55] = tested on: RXF 393
[56] = tested on: SK-MEL-28
[57] = tested on: SNB-19
[58] = tested on: NCI-H460

Compound: CCCCNC(=S)Nc1nc(C(=O)NNC(=O)c2ccccc2)cs1
- GI50 [1]: 12.5 µM (inactive)
- GI50 [2]: 10.8 µM (inactive)
- GI50 [3]: 19.7 µM (inactive)
- GI50 [4]: 14.9 µM (inactive)
- GI50 [5]: 26.1 µM (inactive)
- GI50 [6]: > 10 µM (inactive)
- GI50 [7]: 24 µM (inactive)
- GI50 [8]: 17.3 µM (inactive)
- GI50 [9]: 19.6 µM (inactive)
- GI50 [10]: 13.7 µM (inactive)
- GI50 [11]: 40.2 µM (inactive)
- GI50 [12]: 15.5 µM (inactive)
- GI50 [13]: 96.6 µM (inactive)
- GI50 [14]: 32.6 µM (inactive)
- GI50 [15]: 13.1 µM (inactive)
- GI50 [16]: 12.8 µM (inactive)
- GI50 [17]: 11.5 µM (inactive)
- GI50 [18]: 20.4 µM (inactive)
- GI50 [19]: 21.3 µM (inactive)
- GI50 [20]: 18.7 µM (inactive)
- GI50 [21]: 29.6 µM (inactive)
- GI50 [22]: 16.9 µM (inactive)
- GI50 [23]: 44.5 µM (inactive)
- GI50 [24]: 15.2 µM (inactive)
- GI50 [25]: 20.9 µM (inactive)
- GI50 [26]: 20.5 µM (inactive)
- GI50 [27]: 9.29 µM (inactive)
- GI50 [28]: 6 µM
- GI50 [29]: 13.8 µM (inactive)
- GI50 [30]: 6.14 µM (inactive)
- GI50 [31]: 14 µM (inactive)
- GI50 [32]: 17.5 µM (inactive)
- GI50 [33]: 17.6 µM (inactive)
- GI50 [34]: 10.1 µM (inactive)
- GI50 [35]: 11.8 µM (inactive)
- GI50 [36]: 17.9 µM (inactive)
- GI50 [37]: 15.2 µM (inactive)
- GI50 [38]: 19.6 µM (inactive)
- GI50 [39]: 30.3 µM (inactive)
- GI50 [40]: 27.9 µM (inactive)
- GI50 [41]: 13.3 µM (inactive)
- GI50 [42]: 17.4 µM (inactive)
- GI50 [43]: 19.3 µM (inactive)
- GI50 [44]: 17.5 µM (inactive)
- GI50 [45]: 17.6 µM (inactive)
- GI50 [46]: 19.6 µM (inactive)
- GI50 [47]: 14.1 µM (inactive)
- GI50 [48]: 18.1 µM (inactive)
- GI50 [49]: 16.7 µM (inactive)
- GI50 [50]: 15.9 µM (inactive)
- GI50 [51]: 18 µM (inactive)
- GI50 [52]: 25.9 µM (inactive)

Compound: CC(=O)OCC(OC(C)=O)C(OC(C)=O)C(C=NN(C(C)=O)S(=O)(=O)c1ccc(/C=C2\NC(=O)NC2=O)cc1)OC(C)=O (centres undefined)
- GI50 [53]: > 100 µM (inactive)
- GI50 [7]: > 100 µM (inactive)
- GI50 [8]: > 100 µM (inactive)
- GI50 [10]: > 100 µM (inactive)
- GI50 [14]: > 100 µM (inactive)
- GI50 [19]: > 100 µM (inactive)
- GI50 [20]: > 100 µM (inactive)
- GI50 [54]: > 100 µM (inactive)
- GI50 [23]: > 100 µM (inactive)
- GI50 [24]: > 100 µM (inactive)
- GI50 [55]: > 100 µM (inactive)
- GI50 [25]: > 100 µM (inactive)
- GI50 [42]: > 100 µM (inactive)
- GI50 [46]: > 100 µM (inactive)
- GI50 [48]: > 100 µM (inactive)
- GI50 [51]: > 100 µM (inactive)

Compound: COc1cc(Nc2nc3cc(N)cc(N)c3nc2-c2ccccc2)cc(OC)c1OC
- GI50 [7]: 16.6 µM (inactive)

Compound: CC(=O)OCC1OC(O[C@@H]2C[C@H]3C(C)(C)[C@H](OC(C)=O)CC[C@]3(C)[C@H]3CCC4=C([C@@H](C)C[C@@H](O)[C@H](O)C(C)(C)O)CC[C@@]4(C)[C@@]32C)C(O)C(O)C1O (some centres undefined)
- GI50 [35]: 14.6 µM (inactive)
- GI50 [52]: 13.6 µM (inactive)

Compound: CCCCS/C(=C(/C#N)C(N)=O)c1cc2c([nH]1)CCCC2
- GI50 [1]: 13.1 µM (inactive)
- GI50 [2]: 13.8 µM (inactive)
- GI50 [3]: 3.36 µM (inactive)
- GI50 [5]: 6.71 µM (inactive)
- GI50 [6]: 16.7 µM (inactive)
- GI50 [53]: 14.7 µM (inactive)
- GI50 [7]: 4.69 µM (inactive)
- GI50 [8]: 23.9 µM (inactive)
- GI50 [9]: 15.3 µM (inactive)
- GI50 [10]: 11.4 µM (inactive)
- GI50 [11]: 17.1 µM (inactive)
- GI50 [12]: 11.4 µM (inactive)
- GI50 [13]: 3.67 µM (inactive)
- GI50 [14]: 15.3 µM (inactive)
- GI50 [56]: 14 µM (inactive)
- GI50 [15]: 11 µM (inactive)
- GI50 [16]: 11.2 µM (inactive)
- GI50 [18]: 21.9 µM (inactive)
- GI50 [57]: 19.1 µM (inactive)
- GI50 [19]: 15.1 µM (inactive)
- GI50 [20]: 11.4 µM (inactive)
- GI50 [54]: 10.3 µM (inactive)
- GI50 [22]: 8 µM (inactive)
- GI50 [23]: 3.68 µM (inactive)
- GI50 [24]: 12.4 µM (inactive)
- GI50 [55]: 14.9 µM (inactive)
- GI50 [25]: 14 µM (inactive)
- GI50 [26]: 10 µM (inactive)
- GI50 [27]: 16.1 µM (inactive)
- GI50 [28]: 9.71 µM
- GI50 [30]: 15.7 µM (inactive)
- GI50 [31]: 6.12 µM (inactive)
- GI50 [32]: 22.9 µM (inactive)
- GI50 [33]: 6.52 µM (inactive)
- GI50 [34]: 8.93 µM (inactive)
- GI50 [35]: 15.7 µM (inactive)
- GI50 [36]: 14.3 µM (inactive)
- GI50 [37]: 5.78 µM (inactive)
- GI50 [38]: 12.1 µM (inactive)
- GI50 [39]: 17.6 µM (inactive)
- GI50 [40]: 6.7 µM (inactive)
- GI50 [41]: 14 µM (inactive)
- GI50 [42]: 15.6 µM (inactive)
- GI50 [44]: 4.19 µM (inactive)
- GI50 [45]: 29 µM (inactive)
- GI50 [46]: 12.1 µM (inactive)
- GI50 [47]: 13.1 µM (inactive)
- GI50 [58]: 18.7 µM (inactive)
- GI50 [48]: 11.1 µM (inactive)
- GI50 [49]: 11.5 µM (inactive)
- GI50 [50]: 16.3 µM (inactive)
- GI50 [51]: 21.9 µM (inactive)
- GI50 [52]: 13.8 µM (inactive)
